Laboratory results reported in patent US20140336182A1, “Aurora Kinase Modulators and Method of Use” (Amgen Inc., priority 2013, published 2014).

What was measured:
HeLa cells = experiment: HeLa cell 24 hr ploidy assay (DNA content); assay type: cell-based; conditions: Homo sapiens, HeLa, 4N ploidy, average, read-out: 24h_4NPloidy EC50_IP (uM Avg)
Method in brief: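 DNA content measured by Hoechst 33342 nuclear staining (0.5 ug/ml, 45 min RT) and high-content imaging of fixed HeLa cells after 24 h compound exposure in 0.25% DMSO. Fractions of 4N and >4N cells fitted to dose curves giving EC50 IP, EC50 transit, Max and Min.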

[1] = Solubility in DMSO (observation in the synthesis); assay type: physicochemical; conditions: DMSO at rt
Protocol: The reaction was cooled to rt. Hexane was added to induce the product to precipitate out of the reaction mixture. The resulting red solid was filtered with an aid of hexane. LCMS confirmed that the solid was the product. The product was purified by performing a column chromatography on silica gel using 60:40 CH2Cl2:(90:10:1 CH2Cl2:MeOH:NH4OH). Yellow solid was obtained. LCMS confirmed product. […] MS Calcd for […]: [M]=472. Found: [M+H]=473.

- EC50 (HeLa cells): 0.326 µM
- solubility in DMSO [1]: slightly soluble
SMILES: COc1cnc2c(Nc3cnc(Nc4nnc(-c5ccccc5)c5ccccc45)nc3)ccnc2c1 [Example 36, N^5-(7-Methoxy-1,5-naphthyridin-4-yl)-N^2-(4-phenylphthalazin-1-yl)pyrimidine-2,5-diamine]
